≈ marks a conversion by molar mass, not a printed value.
What was measured:
Staphylococcus aureus [1] = test: Antibacterial activity against methicillin-resistant Staphylococcus aureus COL MB5393; assay type: functional
Staphylococcus aureus [2] = test: Antibacterial activity against methicillin-sensitive Staphylococcus aureus MB2685; assay type: functional
Streptococcus pneumoniae = test: Antibacterial activity against Streptococcus pneumoniae MB212; assay type: functional
Escherichia coli = test: Antibacterial activity against lpxC mutant gene expressing Escherichia coli MB4902; assay type: functional
Staphylococcus aureus [3] = test: Inhibition of type II fatty acid synthesis in Staphylococcus aureus using n-octanoyl-CoA and [14C]malonyl CoA substrate
Enterococcus faecium = test: Antibacterial activity against vancomycin-resistant Enterococcus faecium CL5791; assay type: functional
Enterococcus faecalis = test: Antibacterial activity against vancomycin-sensitive Enterococcus faecalis CL8516; assay type: functional
[4] = target: T1, Oxysterols receptor LXR-alpha (Homo sapiens, UniProt Q13133); test: Displacement of [3H2]F3-methyl AA from LXRalpha by scintillation proximity assay
T1 sequence (Q13133 whole entry): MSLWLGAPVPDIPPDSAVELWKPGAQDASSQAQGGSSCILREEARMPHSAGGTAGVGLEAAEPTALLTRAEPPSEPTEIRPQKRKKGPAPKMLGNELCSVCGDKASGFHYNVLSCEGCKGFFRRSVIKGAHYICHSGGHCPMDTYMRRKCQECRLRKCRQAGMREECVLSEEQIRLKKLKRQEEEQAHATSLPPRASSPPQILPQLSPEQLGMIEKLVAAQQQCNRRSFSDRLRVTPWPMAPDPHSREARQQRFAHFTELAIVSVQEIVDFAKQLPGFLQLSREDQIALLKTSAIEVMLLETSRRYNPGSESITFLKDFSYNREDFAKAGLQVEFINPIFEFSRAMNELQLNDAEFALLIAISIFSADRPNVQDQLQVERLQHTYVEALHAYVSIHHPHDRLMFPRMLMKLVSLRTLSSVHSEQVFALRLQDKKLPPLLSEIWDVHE

Staphylococcus aureus [5] = test: Inhibition of protein biosynthesis in Staphylococcus aureus
Staphylococcus aureus [6] = test: Inhibition of phospholipid biosynthesis in Staphylococcus aureus
Staphylococcus aureus [7] = test: Inhibition of DNA biosynthesis in Staphylococcus aureus
Staphylococcus aureus [8] = test: Inhibition of RNA biosynthesis in Staphylococcus aureus
[9] = target: T2, Oxysterols receptor LXR-beta (Homo sapiens, UniProt P55055); test: Displacement of [3H2]F3-methyl AA from LXRbeta by scintillation proximity assay
T2 sequence (P55055 whole entry): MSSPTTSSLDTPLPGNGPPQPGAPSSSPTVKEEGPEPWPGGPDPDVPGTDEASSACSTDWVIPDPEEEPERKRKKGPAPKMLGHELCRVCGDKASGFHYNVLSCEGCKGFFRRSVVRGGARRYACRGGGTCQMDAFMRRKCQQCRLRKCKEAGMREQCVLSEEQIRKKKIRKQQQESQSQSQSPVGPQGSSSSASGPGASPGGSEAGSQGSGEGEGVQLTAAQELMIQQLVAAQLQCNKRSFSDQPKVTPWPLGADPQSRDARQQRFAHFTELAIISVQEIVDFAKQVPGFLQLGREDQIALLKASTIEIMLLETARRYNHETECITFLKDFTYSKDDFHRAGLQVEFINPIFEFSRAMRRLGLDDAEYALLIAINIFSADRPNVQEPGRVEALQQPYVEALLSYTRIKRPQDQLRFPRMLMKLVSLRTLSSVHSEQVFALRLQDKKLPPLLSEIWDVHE

SMILES | MIC (Staphylococcus aureus [1]) [µg/mL] | MIC (Staphylococcus aureus [2]) [µg/mL] | MIC (Streptococcus pneumoniae) [µg/mL] | MIC (Escherichia coli) [µg/mL] | IC50 (Staphylococcus aureus [3]) [µg/mL] | MIC (Enterococcus faecium) [µg/mL] | MIC (Enterococcus faecalis) [µg/mL] | IC50 [4] [µM] | IC50 (Staphylococcus aureus [5]) [µg/mL] | IC50 (Staphylococcus aureus [6]) [µg/mL] | IC50 (Staphylococcus aureus [7]) [µg/mL] | IC50 (Staphylococcus aureus [8]) [µg/mL] | IC50 [9] [µM]
Cc1cc(O)cc2c1[C@@H]1O[C@@](C)(Cc3cc4c(c(O)c31)C(=O)c1c(O)cc(O)cc1C4(C)C)O2 | 0.5 (≈ 1.09 µM) | 1 (≈ 2.17 µM) | 1 (≈ 2.17 µM) | 1 (≈ 2.17 µM) | 245 (≈ 532 µM) | 0.5 (≈ 1.09 µM) | 1 (≈ 2.17 µM) |  |  |  |  |  | 
CO[C@H]1/C=C/O[C@@]2(C)Oc3c(C)c(O)c4c(O)c(c(/C=N/N5CCN(C)CC5)c(O)c4c3C2=O)NC(=O)/C(C)=C\C=C\[C@H](C)[C@H](O)[C@@H](C)[C@@H](O)[C@@H](C)[C@H](OC(C)=O)[C@@H]1C [RIFAMPIN] | 0.002 (≈ 0.00243 µM) | 0.002 (≈ 0.00243 µM) | 0.004 (≈ 0.00486 µM) | 0.02 (≈ 0.0243 µM) | > 250 | 0.04 (≈ 0.0486 µM) | 0.008 (≈ 0.00972 µM) |  |  |  |  |  | 
COc1cc(C)c2c(c1)O[C@@]1(C)Cc3cc4c(c(O)c3[C@@H]2O1)C(=O)c1c(O)c(Cl)c(O)c(Cl)c1C4(C)C | 1 (≈ 1.84 µM) | 0.5 (≈ 0.92 µM) | 1 (≈ 1.84 µM) | 0.5 (≈ 0.92 µM) | 11.4 (≈ 21 µM) | 2 (≈ 3.68 µM) | 1 (≈ 1.84 µM) | 10 | 0.21 (≈ 0.386 µM) | 0.21 (≈ 0.386 µM) | 0.21 (≈ 0.386 µM) | 0.21 (≈ 0.386 µM) | > 15
O=C(N[C@H](CO)[C@H](O)c1ccc([N+](=O)[O-])cc1)C(Cl)Cl [CHLORAMPHENICOL] | 6.25 (≈ 19.3 µM) | 6.25 (≈ 19.3 µM) | 1.56 (≈ 4.83 µM) | 1.56 (≈ 4.83 µM) | > 250 | 6.25 (≈ 19.3 µM) | 1.56 (≈ 4.83 µM) |  |  |  |  |  | 
Cc1cc(O)cc2c1[C@H]1O[C@](C)(Cc3cc4c(c(O)c31)C(=O)c1c(O)cc(O)cc1C4(C)C)O2 | 2 (≈ 4.34 µM) | 2 (≈ 4.34 µM) | 1 (≈ 2.17 µM) | 2 (≈ 4.34 µM) | 288 (≈ 625 µM) | 2 (≈ 4.34 µM) | 0.5 (≈ 1.09 µM) |  | 1 (≈ 2.17 µM) | 1 (≈ 2.17 µM) | 1 (≈ 2.17 µM) | 1 (≈ 2.17 µM) | 

Reference: ChEMBL document CHEMBL1158822, “Anthrabenzoxocinones from Streptomyces sp. as liver X receptor ligands and antibacterial agents” (J Nat Prod, 2005)
